Assays:
Test in all cases: post-emergence herbicidal activity, greenhouse
Type in all cases: in vivo
Conditions in all cases: Table II
Pennsylvania Smartweed = test system: Pennsylvania Smartweed
Description: (§1) A good grade of top soil is placed in aluminum pans having holes in the bottom and compacted to a depth of 0.95 to 1.27 cm. from the top of the pan. A predetermined number of seeds of each of several dicotyledonous and moncotyledonous annual plant species and/or vegetative propagules for the perennial plant species were placed on the soil and pressed into the soil surface. The seeds and/or vegetative propagules are covered with soil and leveled. The pans are then placed on a sand bench in the greenhouse and watered from below as needed. After the plants reach the desired age (two to three weeks), each pan, except for the control pans, is removed individually to a spraying chamber and sprayed by means of an atomizer at the rates noted. In the spray solution is an amount of an emulsifying agent mixture to give a spray solution or suspension which contains about 0.4% by weight of the emulsifier. The spray solution or suspension contains a sufficient amount of the candidate chemical in order to give application rates corresponding to those set forth in the tables. The pans were returned to the greenhouse and watered as before and the injury to the plants as compared to the control is observed at approximately two and four weeks and the results recorded. In the tables, WAT means "weeks after treatment."
(§2) The post-emergent herbicidal activity index used in Tables II and III is as follows:
(§3) The plant species utilized in these tests are identified by letter in accordance with the following legend: […]

Quackgrass = test system: Quackgrass
Description: as §1, §2, §3

Yellow Nutsedge = test system: Yellow Nutsedge
Description: as §1, §2, §3

Morningglory = test system: Morningglory
Description: as §1, §2, §3

Barnyardgrass = test system: Barnyardgrass
Description: as §1, §2, §3

Johnsongrass = test system: Johnsongrass
Description: as §1, §2, §3

Canada Thistle = test system: Canada Thistle
Description: as §1, §2, §3

Velvetleaf = test system: Velvetleaf
Description: as §1, §2, §3

Downy Brome = test system: Downy Brome
Description: as §1, §2, §3

Common Lambsquarters = test system: Common Lambsquarters
Description: as §1, §2, §3

Cocklebur = test system: Cocklebur
Description: as §1, §2, §3

[1] = 2 WAT, 5.6 kg/h, formulated in anhydrous tetrahydrofuran
[2] = 2 WAT, 11.2 kg/h, formulated in anhydrous tetrahydrofuran
[3] = 4 WAT, 5.6 kg/h, formulated in anhydrous tetrahydrofuran
[4] = 4 WAT, 11.2 kg/h, formulated in anhydrous tetrahydrofuran
[5] = 2 WAT, 5.6 kg/h, formulated immediately prior to treatment
[6] = 2 WAT, 11.2 kg/h, formulated immediately prior to treatment
[7] = 4 WAT, 5.6 kg/h, formulated immediately prior to treatment
[8] = 4 WAT, 11.2 kg/h, formulated immediately prior to treatment

## Glycine, N-((Bis[((1,1-Dimethylethyl)Diphenylsilyl)oxy]-Phosphinyl)-Methyl)-, [(1,1-Dimethylethyl)Diphenylsilyl]Ester, (75%); Silanol, (1,1-Dimethylethyl)Diphenyl-, (25%-Mixture) [Ex. 4]
Pennsylvania Smartweed; [1]
  Plant Response Index (F): 1 (25-49% inhibition)
Pennsylvania Smartweed; [2]
  Plant Response Index (F): 2 (50-74% inhibition)
Pennsylvania Smartweed; [3]
  Plant Response Index (F): 0 (0-24% inhibition)
Pennsylvania Smartweed; [4]
  Plant Response Index (F): 2 (50-74% inhibition)
Quackgrass; [1]
  Plant Response Index (H): 0 (0-24% inhibition)
Quackgrass; [2]
  Plant Response Index (H): 1 (25-49% inhibition)
Quackgrass; [3]
  Plant Response Index (H): 0 (0-24% inhibition)
Quackgrass; [4]
  Plant Response Index (H): 2 (50-74% inhibition)
Yellow Nutsedge; [1]
  Plant Response Index (G): 0 (0-24% inhibition)
Yellow Nutsedge; [2]
  Plant Response Index (G): 0 (0-24% inhibition)
Yellow Nutsedge; [3]
  Plant Response Index (G): 1 (25-49% inhibition)
Yellow Nutsedge; [4]
  Plant Response Index (G): 2 (50-74% inhibition)
Morningglory; [1]
  Plant Response Index (D): 1 (25-49% inhibition)
Morningglory; [2]
  Plant Response Index (D): 2 (50-74% inhibition)
Morningglory; [3]
  Plant Response Index (D): 1 (25-49% inhibition)
Morningglory; [4]
  Plant Response Index (D): 2 (50-74% inhibition)
Barnyardgrass; [1]
  Plant Response Index (K): 1 (25-49% inhibition)
Barnyardgrass; [2]
  Plant Response Index (K): 1 (25-49% inhibition)
Barnyardgrass; [3]
  Plant Response Index (K): 1 (25-49% inhibition)
Barnyardgrass; [4]
  Plant Response Index (K): 1 (25-49% inhibition)
Johnsongrass; [1]
  Plant Response Index (I): 0 (0-24% inhibition)
Johnsongrass; [2]
  Plant Response Index (I): 0 (0-24% inhibition)
Johnsongrass; [3]
  Plant Response Index (I): 0 (0-24% inhibition)
Johnsongrass; [4]
  Plant Response Index (I): 1 (25-49% inhibition)
Canada Thistle; [1]
  Plant Response Index (A): 0 (0-24% inhibition)
Canada Thistle; [2]
  Plant Response Index (A): 2 (50-74% inhibition)
Canada Thistle; [3]
  Plant Response Index (A): 0 (0-24% inhibition)
Canada Thistle; [4]
  Plant Response Index (A): 2 (50-74% inhibition)
Velvetleaf; [1]
  Plant Response Index (C): 0 (0-24% inhibition)
Velvetleaf; [2]
  Plant Response Index (C): 1 (25-49% inhibition)
Velvetleaf; [3]
  Plant Response Index (C): 0 (0-24% inhibition)
Velvetleaf; [4]
  Plant Response Index (C): 1 (25-49% inhibition)
Downy Brome; [1]
  Plant Response Index (J): 0 (0-24% inhibition)
Downy Brome; [2]
  Plant Response Index (J): 0 (0-24% inhibition)
Downy Brome; [3]
  Plant Response Index (J): 0 (0-24% inhibition)
Downy Brome; [4]
  Plant Response Index (J): 0 (0-24% inhibition)
Common Lambsquarters; [1]
  Plant Response Index (E): 0 (0-24% inhibition)
Common Lambsquarters; [2]
  Plant Response Index (E): 2 (50-74% inhibition)
Common Lambsquarters; [3]
  Plant Response Index (E): 0 (0-24% inhibition)
Common Lambsquarters; [4]
  Plant Response Index (E): 3 (75-99% inhibition)
Cocklebur; [1]
  Plant Response Index (B): 1 (25-49% inhibition)
Cocklebur; [2]
  Plant Response Index (B): 2 (50-74% inhibition)
Cocklebur; [3]
  Plant Response Index (B): 1 (25-49% inhibition)
Cocklebur; [4]
  Plant Response Index (B): 2 (50-74% inhibition)

## CC(C)(C)[Si](C)(C)OC(=O)CNCP(=O)(O[Si](C)(C)C(C)(C)C)O[Si](C)(C)C(C)(C)C [Ex. 9, Glycine, N--((Bis[((1,1-Dimethylethyl)Dimethylsilyl)Oxy]Phosphinyl)Methyl),-(1,1-Dimethylethyl)Dimethylsilylester]
Pennsylvania Smartweed; [5]
  Plant Response Index (F): 1 (25-49% inhibition)
Pennsylvania Smartweed; [6]
  Plant Response Index (F): 1 (25-49% inhibition)
Pennsylvania Smartweed; [7]
  Plant Response Index (F): 1 (25-49% inhibition)
Pennsylvania Smartweed; [8]
  Plant Response Index (F): 1 (25-49% inhibition)
Quackgrass; [5]
  Plant Response Index (H): 0 (0-24% inhibition)
Quackgrass; [6]
  Plant Response Index (H): 0 (0-24% inhibition)
Quackgrass; [7]
  Plant Response Index (H): 0 (0-24% inhibition)
Quackgrass; [8]
  Plant Response Index (H): 0 (0-24% inhibition)
Yellow Nutsedge; [5]
  Plant Response Index (G): 1 (25-49% inhibition)
Yellow Nutsedge; [6]
  Plant Response Index (G): 1 (25-49% inhibition)
Yellow Nutsedge; [7]
  Plant Response Index (G): 2 (50-74% inhibition)
Yellow Nutsedge; [8]
  Plant Response Index (G): 2 (50-74% inhibition)
Morningglory; [5]
  Plant Response Index (D): 2 (50-74% inhibition)
Morningglory; [6]
  Plant Response Index (D): 2 (50-74% inhibition)
Morningglory; [7]
  Plant Response Index (D): 2 (50-74% inhibition)
Morningglory; [8]
  Plant Response Index (D): 2 (50-74% inhibition)
Barnyardgrass; [5]
  Plant Response Index (K): 1 (25-49% inhibition)
Barnyardgrass; [6]
  Plant Response Index (K): 1 (25-49% inhibition)
Barnyardgrass; [7]
  Plant Response Index (K): 1 (25-49% inhibition)
Barnyardgrass; [8]
  Plant Response Index (K): 2 (50-74% inhibition)
Johnsongrass; [5]
  Plant Response Index (I): 1 (25-49% inhibition)
Johnsongrass; [6]
  Plant Response Index (I): 1 (25-49% inhibition)
Johnsongrass; [7]
  Plant Response Index (I): 1 (25-49% inhibition)
Johnsongrass; [8]
  Plant Response Index (I): 1 (25-49% inhibition)
Canada Thistle; [5]
  Plant Response Index (A): 1 (25-49% inhibition)
Canada Thistle; [6]
  Plant Response Index (A): 1 (25-49% inhibition)
Canada Thistle; [7]
  Plant Response Index (A): 2 (50-74% inhibition)
Canada Thistle; [8]
  Plant Response Index (A): 1 (25-49% inhibition)
Velvetleaf; [5]
  Plant Response Index (C): 1 (25-49% inhibition)
Velvetleaf; [6]
  Plant Response Index (C): 2 (50-74% inhibition)
Velvetleaf; [7]
  Plant Response Index (C): 1 (25-49% inhibition)
Velvetleaf; [8]
  Plant Response Index (C): 2 (50-74% inhibition)
Downy Brome; [5]
  Plant Response Index (J): 0 (0-24% inhibition)
Downy Brome; [6]
  Plant Response Index (J): 1 (25-49% inhibition)
Downy Brome; [7]
  Plant Response Index (J): 1 (25-49% inhibition)
Downy Brome; [8]
  Plant Response Index (J): 1 (25-49% inhibition)
Common Lambsquarters; [5]
  Plant Response Index (E): 0 (0-24% inhibition)
Common Lambsquarters; [6]
  Plant Response Index (E): 0 (0-24% inhibition)
Common Lambsquarters; [7]
  Plant Response Index (E): 1 (25-49% inhibition)
Common Lambsquarters; [8]
  Plant Response Index (E): 2 (50-74% inhibition)
Cocklebur; [5]
  Plant Response Index (B): 1 (25-49% inhibition)
Cocklebur; [6]
  Plant Response Index (B): 2 (50-74% inhibition)
Cocklebur; [7]
  Plant Response Index (B): 2 (50-74% inhibition)
Cocklebur; [8]
  Plant Response Index (B): 2 (50-74% inhibition)

Reference: patent US4471131A, “Novel silyl esters of N-phosphonomethylglycine” (Monsanto Company, priority 1983, dated 1984)
